According to the supplement of paper PMC8960247:
Counter-ions that a name gives are not always drawn. ± gives the standard error.

Columns and labels:
621-102 (TSC2-deficient) [1] = assay: relative viability vs DMSO; higher = less cytotoxic; conditions: serum: 10% FBS, 72 h
621-103 (TSC2-rescued) = assay: as above; conditions: serum: 10% FBS, 72 h
621-102 (TSC2-deficient) [2] = assay: relative viability vs DMSO (fraction); higher = less cytotoxic; conditions: serum: 0.1% FBS, 72 h
UMB1949 (TSC2-deficient) = assay: as above; conditions: serum: 0.1% FBS, 72 h;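 also: renal angiomyolipoma cell lines screened in 384-well plates, viability normalized per plate to DMSO-treated cells, each plate carrying 50 nM rapamycin and 1 µM staurosporine controls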

Row | SMILES | relative viability (621-102 (TSC2-deficient) [1]; 0.0001 µM) [%] | relative viability (621-102 (TSC2-deficient) [1]; 0.001 µM) [%] | relative viability (621-102 (TSC2-deficient) [1]; 0.01 µM) [%] | relative viability (621-102 (TSC2-deficient) [1]; 0.1 µM) [%] | relative viability (621-102 (TSC2-deficient) [1]; 1 µM) [%] | relative viability (621-102 (TSC2-deficient) [1]; 10 µM) [%] | relative viability (621-103 (TSC2-rescued); 0.0001 µM) [%] | relative viability (621-103 (TSC2-rescued); 0.001 µM) [%] | relative viability (621-103 (TSC2-rescued); 0.01 µM) [%] | relative viability (621-103 (TSC2-rescued); 0.1 µM) [%] | relative viability (621-103 (TSC2-rescued); 1 µM) [%] | relative viability (621-103 (TSC2-rescued); 10 µM) [%] | relative viability (621-102 (TSC2-deficient) [2]; 0.0128 nM) | relative viability (621-102 (TSC2-deficient) [2]; 0.064 nM) | relative viability (621-102 (TSC2-deficient) [2]; 0.32 nM) | relative viability (621-102 (TSC2-deficient) [2]; 1.6 nM) | relative viability (621-102 (TSC2-deficient) [2]; 8 nM) | relative viability (621-102 (TSC2-deficient) [2]; 40 nM) | relative viability (621-102 (TSC2-deficient) [2]; 200 nM) | relative viability (621-102 (TSC2-deficient) [2]; 1000 nM) | relative viability (621-102 (TSC2-deficient) [2]; 5000 nM) | relative viability (UMB1949 (TSC2-deficient); 0.0128 nM) | relative viability (UMB1949 (TSC2-deficient); 0.064 nM) | relative viability (UMB1949 (TSC2-deficient); 0.32 nM) | relative viability (UMB1949 (TSC2-deficient); 1.6 nM) | relative viability (UMB1949 (TSC2-deficient); 8 nM) | relative viability (UMB1949 (TSC2-deficient); 40 nM) | relative viability (UMB1949 (TSC2-deficient); 200 nM) | relative viability (UMB1949 (TSC2-deficient); 1000 nM) | relative viability (UMB1949 (TSC2-deficient); 5000 nM)
1 | COC1=CC(c2cc3ccccc3[nH]2)=N/C1=C\c1[nH]c(C)cc1C [Obatoclax Mesylate] | 116.6 ± 0.46 | 115 ± 5.2 | 101.8 ± 0.93 | 54 ± 2.3 | 16.9 ± 0.25 | 5.18 ± 0.8 | 102.9 ± 0.9 | 99.7 ± 1.6 | 96.8 ± 0.97 | 68.9 ± 2 | 28.8 ± 0.29 | 5.57 ± 0.73 | 1.24 | 0.96 | 1.05 | 1.17 | 1.06 | 0.847 | 0.128 | 0.00422 | 0.00238 | 1.1 | 1.01 | 1.06 | 1.08 | 1 | 0.616 | 0.0115 | 0.00837 | 0.0101
2 | Nc1nc2[nH]cc(CCc3ccc(C(=O)N[C@@H](CCC(=O)O)C(=O)O)cc3)c2c(=O)[nH]1 [Pemetrexed disodium] | 107 ± 2.3 | 101 ± 4.2 | 107 ± 5.4 | 93.8 ± 4.3 | 94.1 ± 6.1 | 81.27 ± 0.71 | 102 ± 2.4 | 92.3 ± 6.5 | 102 ± 1.6 | 106 ± 1.4 | 104.4 ± 0.47 | 88.6 ± 7.4 | 1.25 | 1.15 | 1.17 | 1.17 | 1.09 | 0.126 | 0.0307 | 0.0251 | 0.0247 | 1.05 | 0.979 | 1.03 | 0.984 | 1.02 | 0.0167 | 0.00471 | 0.00243 | 0.000722
3 | Nc1cccc2c1C(=O)N(C1CCC(=O)NC1=O)C2=O (stereo not given) [Pomalidomide] | 107 ± 1.1 | 112 ± 1.7 | 108 ± 3.3 | 116 ± 1.5 | 118 ± 2.1 | 118 ± 4 | 104.77 ± 0.07 | 102.3 ± 0.72 | 101.3 ± 0.69 | 96.9 ± 1.3 | 98.59 ± 0.92 | 100.7 ± 0.95 | 1.18 | 0.947 | 1.03 | 0.975 | 0.951 | 1.02 | 0.939 | 0.985 | 0.951 | 1.06 | 0.959 | 1.04 | 1.03 | 1.18 | 1.04 | 1.07 | 0.943 | 0.912
